Patent publication US20240299328A1, “COMPOSITIONS COMPRISING 15-HEPE AND METHODS OF TREATING AND/OR PREVENTING HEMATOLOGIC DISORDERS AND RELATED DISEASES” (Afimmune Limited, priority 2023, published 2024)

Columns and labels:
[1] = test system: α-SMA, TIMP-1, TGF-β and Collagen Type 1 mRNA; assay: BDL study: quantitative RT-PCR of liver; format: in vivo; settings: BDL mice liver, normalized to 36B4, Day 14, mean ± SD
Method: Quantitative RT-PCR: Total ribonucleic acid (RNA) was extracted from liver samples using RNAiso. One μg of RNA was reverse-transcribed using a reaction mixture containing 4.4 mM magnesium chloride (MgCl2), 40 U RNase inhibitor, 0.5 mM dNTP, 6.28 μM random hexamer, 5× first strand buffer, 10 mM dithiothreitol and 200 U MMLV-RT in a final volume of 20 μL. The reaction was carried out for 1 hour at 37° C., followed by 5 minutes at 99° C. Real-time PCR was performed using real-time PCR DICE and TB Green™ Premix Ex Taq™ II. To calculate the relative mRNA expression level, the expression of each gene (α-SMA, TIMP-1, TGF-β and Collagen Type 1) was normalized to that of reference gene 36B4 (gene symbol: Rplp0). Information regarding the PCR-primer sets and the plate layout are described in Tables 8 and 9.

[2] = test system: humanized sickle cell (SS) mice exposed to H/R stress; assay: Humanized SCD (SS) mice exposed to hypoxia/reoxygenation (H/R) stress: blood, flow cytometry, immunoblot; format: in vivo
Method: Animals and design of the study: Experiments were performed on 4-5 months-old sex matched healthy control (Hba^tm1(HBA) Tow Hbb^tm3(HBG1, HBB) Tow) and SCD (Hba^tm1(HBA)Tow Hbb^tm2(HBG1.HBB*)Tow) mice. The study used 4-5 months-old mice. The sickle cell related organ damage is not so severe to generate confounding factors when the impact of H/R induced stress is evaluated. This is also corroborated by the observation of Kasztan M et al who show gender-related differences in kidney function of humanized SCD mice becoming significant after 24 weeks (6 months) of age. The size of the mouse groups was established based on studies with the same mouse model for SCD generated by us and other labs. Mice were randomly assigned to the different treatment groups and analysis. Healthy and SS mice were treated with ether vehicle (hydroxypropyl methyl cellulose, HPMC, 0.5%) or Epeleuton in HPMC 0.5% (1000 mg/kg/day) administrated by gavage for 6 weeks. […] When indicated, mice underwent a hypoxia/reoxygenation stress (H/R): 10 hours hypoxia (8% oxygen) followed by 3 hours reoxygenation (21% oxygen) to mimic acute vaso-occlusive crisis as previously described. Whole blood and organs were collected from each mouse under isoflurane anesthesia. Organs were immediately removed and divided into two portions which were either immediately frozen in liquid nitrogen or fixed in 10% formalin and embedded in paraffin for histology. Hematological parameters were evaluated with a Sysmex XN-1000 Hematology Analyzer and red cell morphology was evaluated as previously reported. Biochemical assays were performed using standard biochemical assays, as previously reported. Plasmatic Pentraxin 2 and CCL-2 and CXCL-2 were measured respectively using the Mouse Pentraxin 2/SAP Quantikine ELISA Kit and the next generation ELISA kit according to the manufacturer's instruction.
Immunoblot analysis: Packed red cells were lysed in ice-cold phosphate lysis buffer (5 mM Na2HPO4, pH 8.0, containing protease inhibitor cocktail tablets, 3 mM benzamidine final concentration, 1 mM Na3VO4 final concentration) and centrifuged 10 min at 4° C. at 12,000 g. Red cell membrane (ghost) and cytosol fractions were obtained as previously reported. Frozen lung, kidney and aorta from each studied group were homogenized and lysed with iced lyses buffer (150 mM NaCl, 25 mM bicine, 0.1% SDS, 2% Triton X-100, 1 mM EDTA, protease inhibitor cocktail tablets, 1 mM Na3VO4 final concentration) then centrifuged 30 min at 4° C. at 12,000 g. Specific antibodies used are: anti Phospho-Tyrosine (clone PY99 from SCBT, Santa Cruz, CA (dilution 1:3000, 75 μg loaded) and clone 4G10 from Merck KGaA, Darmstadt, Germany (dilution 1:1600, 75 μgr loaded)); anti Phospho (Ser536) NF-kB p65 (dilution 1:1000, 75 μg loaded) and anti NF-kB p65 (clone C22B4) (dilution 1:1000, 75 μgr loaded) from Cell Signaling Technology (Danvers, MA, USA); anti-NLRP3/NALP3 from Vinci-Biochem Srl, Vinci, Italy (dilution 1:1000, 75 μgr loaded); anti Endothelin-1 (ET-1) form AbCam, Cambridge, UK (dilution 1:1000, 75 μgr loaded); anti VCAM-1 (R and D Systems, Minneapolis, MN, USA (dilution 1:1000, 40 μgr loaded)); anti ICAM-1 (clone EP1442Y, dilution 1:1000, 75 μgr loaded, AbCam, Cambridge, UK); anti TXAS-1 (Cayman, Ann Arbor, MI, USA); anti Nrf2-phospho-S40 (Clone EP1809Y, dilution 1:1000, 75 μgr loaded, AbCam, Cambridge, UK); anti-Nrf2 (dilution 1:1000, 75 μgr loaded, AbCam, Cambridge, UK); anti Nqo1 from Santa Cruz Biotechnology, Inc, CA, USA (clone C-19; dilution 1:1000, 75 μgr/μl loaded); anti-heme oxygenase 1(HO-1) form SCBT (Santa Cruz, CA, USA (dilution 1:1000, 50 μgr loaded); E-selectin (H-300) (dilution 1:1000, 75 μgr loaded); anti GAPDH from SCBT (Santa Cruz, CA, USA (dilution 1:5000, 50 μgr loaded)); anti Actin from SCBT (Santa Cruz, CA, USA (clone 2A3, dilution 1:1000, 50 μgr/loaded)). […]

rats = settings: 26-week oral, once daily; cited from earlier work
[3] = H/R, 1000 mg/Kg/d for 6 weeks, vs vehicle
[4] = H/R, 1000 mg/Kg/day for 6 weeks

CC/C=C\C[C@H](O)/C=C/C=C\C/C=C\C/C=C\CCCC(=O)OCC [DS102, 15(S)-hydroxy-(5Z,8Z,11Z,13E,17Z)-eicosapentaenoic acid ethyl ester]
Alpha-SMA mRNA expression level ([1]; 50 mg/kg PO QD Day 0-13): 3.21 ± 1.67 | Collagen Type 1 mRNA expression level ([1]; 50 mg/kg PO QD Day 0-13): 4.94 ± 2.76 | TGF-β mRNA expression level ([1]; 50 mg/kg PO QD Day 0-13): 1.48 ± 0.48 | TIMP-1 mRNA expression level ([1]; 50 mg/kg PO QD Day 0-13): 43.82 ± 26.19 | Alpha-SMA mRNA expression level ([1]; 250 mg/kg PO QD Day 0-13): 2.66 ± 1.33 | Collagen Type 1 mRNA expression level ([1]; 250 mg/kg PO QD Day 0-13): 4.21 ± 1.90 | TGF-β mRNA expression level ([1]; 250 mg/kg PO QD Day 0-13): 1.50 ± 0.44 | TIMP-1 mRNA expression level ([1]; 250 mg/kg PO QD Day 0-13): 30.65 ± 16.80 | spleen macrophage classic inflammatory markers (CD80, CD68) ([2]; 1000 mg/Kg/day for 6 weeks, vs vehicle): significant reduction | H/R induced increase in NLRP3, VCAM-1, ET-1 and TXAS-1 expression in kidney ([2]; H/R, 1000 mg/Kg/d for 6 weeks): reduction | NLRP3 inflammasome in lung tissue ([2]; H/R, 1000 mg/Kg/d for 6 weeks): downregulation | VCAM-1 in livers ([2]; H/R, 1000 mg/Kg/d for 6 weeks): prevented the H/R induced up-regulation | activation of NF-kB p65 and Nrf2 in liver ([2]; H/R, 1000 mg/Kg/d for 6 weeks): reduced activation | active forms of NF-kB p65 induced by H/R in lung ([2]; H/R, 1000 mg/Kg/d for 6 weeks): significant decrease | antioxidants NQO1 and HO-1 in liver ([2]; H/R, 1000 mg/Kg/d for 6 weeks): downregulation | expression of NLRP3 in livers ([2]; H/R, 1000 mg/Kg/d for 6 weeks): lower expression | liver protein oxidation ([2]; H/R, 1000 mg/Kg/d for 6 weeks): marked reduction | ET-1 in livers [2, 3]: trend towards reduction | H/R induced activation of NF-kB p65 in kidneys [2, 3]: decreased | H/R induced expression of VCAM-1 in isolated aorta [2, 3]: significant reduction | H/R-induced increases in creatinine and BUN plasma values [2, 3]: reduction | leukocyte infiltrates in kidneys (flow cytometry) [2, 3]: significant reduction | H/R-induced increase in neutrophil counts [2, 4]: significantly reduced | amount of sickled red blood cells [2, 4]: decreased | hematocrit (Hct) and hemoglobin (Hb) [2, 4]: prevented the H/R induced reduction | plasma C reactive protein (CRP) and pentraxin-2 [2, 4]: decreased | spleen neutrophils ([2]; H/R, 1000 mg/Kg/day for 6 weeks, vs vehicle): significant decrease | lactate dehydrogenase (LDH) ([2]; H/R, plasma, 1000 mg/Kg/day for 6 weeks): reduction | tyrosine phosphorylation state of band 3 ([2]; H/R, red cell membrane, 1000 mg/Kg/day for 6 weeks): reduction | clearance of damaged RBCs ([2]; spleen macrophages, 1000 mg/Kg/day for 6 weeks, vs vehicle): trend towards reduction | highest dose tested, showing no adverse effects (rats): 1 mg/kg/day
